Test results taken from patent publication US20220022513A1 (INTERNATIONAL FLAVORS & FRAGRANCES INC., priority 2018, published 2022).

Assays:
Format in all cases: in vivo
[1] = Sensory evaluation of sebacic acid and traumatic acid in sweetened milk; details: for sweetness and mouthfeel of sweetened milk: 2 ppm (each) in sweetened milk; for Taste Evaluation: 2 ppm (each) in sweetened milk (2% fat milk with 2% sucrose), versus base
Method: Sweetened milk (2% fat milk with 2% sucrose) was prepared and used as a base solution (“base”).

[2] = Sensory evaluation of sebacic acid at different amounts in sugar water
Method: Sugar water (4% sucrose in drinking water) was prepared and used as a base solution.

[3] = Descriptive sensory evaluation (taste modulation) of sebacic acid in different applications
Method: Descriptive sensory evaluations were carried out using different amounts of sebacic acid in different applications.

Row | SMILES | sweetness and mouthfeel of sweetened milk [1] | Taste Evaluation [1] | Taste Evaluation ([2]; 0.02 ppm in sugar water (4% sucrose in drinking water)) | Taste Evaluation ([2]; 1000 ppm in sugar water (4% sucrose in drinking water)) | Taste Evaluation ([3]; 7.5 ppm in 3% Sugar-Sweetened Full Fat Milk) | Taste Evaluation ([3]; 7.5 ppm in Mixed Berry Yogurt Smoothie (1% Fat, 9% Sugar, 3% Protein)) | Taste Evaluation ([3]; 15 ppm in Strawberry Flavored Yogurt (5% Sugar, 0.4% Fat, 8.7 Grams Protein)) | Taste Evaluation ([3]; 40 ppm in 3% Sugar + 0.05% Citric Acid Water Solution) | Taste Evaluation ([3]; 40 ppm in Water, compared to same application without sebacic acid)
1 | O=C(O)/C=C/CCCCCCCCC(=O)O [Traumatic Acid, traumatic acid] | increased sweetness and mouthfeel | Sweeter and more mouthfeel |  |  |  |  |  |  | 
2 | O=C(O)CCCCCCCCC(=O)O [Sebacic acid, sebacic acid] | increased sweetness and mouthfeel | Sweeter and more mouthfeel | Slight sweet and mouthfeel | Strong sweet and mouthfeel | Increases fatty perception | Cuts sour end, increased | Sweet up front, more | Fatty and oily | Fatty and oily
